Measurements taken from patent US12516293B2, “Reagents and methods with Wnt agonists and bioactive lipids for generating and expanding cardiomyocytes” (The Board of Trustees of the Leland Stanford Junior …, priority 2018, dated 2026).

Columns and labels:
Format in all cases: cell-based, human
[1] = system: hiPSC-CMs; assay: hiPSC-CM expansion upon serial passaging
[2] = system: TCF/LEF; assay: TOPFlash TCF/LEF luciferase reporter in day 12 hiPSC-CMs; settings: P0 hiPSC-CMs, 24 hours
Procedure: Day 12 hiPSC-CMs were transfected for 48h with a TCF reporter plasmid (TOPflash M50, Addgene) or the mutant reporter plasmid (TOPflash M51, Addgene) and the use of Lipofectamine 3000 (Invitrogen). 72h after transfection cells were treated with various small molecules for 24h. Cells were lysed and mixed with luciferase substrate (Promega) and the firefly luciferase expression was measured with a 96-well micro plate reader (Fisher).

[3] = system: hiPSC-CMs; assay: Sarcomere alignment and contractility on micropatterns
Procedure: Cells were plated on soft substrates with micropatterned proteins on top. After 3-6 days of culture high resolution movies (Sony Microscopy) were recorded for at least 10 individual cells per group and motion velocity analysis was processed digitally. After recordings, cells were fixed and used for immunohistochemistry and confocal imaging. Sarcomere alignment was quantified with Image J software. CM maturation is accompanied by the formation of highly structured sarcomere, bi- or multinucleation, and cell cycle exit (Bassat et al., 2017; Bersell et al., 2009; Senyo et al., 2014; Uygur and Lee, 2016). […] To address this, age-matched hiPSC-CMs exposed to media containing DMSO (CTR) were compared to ones that have undergone 3 passages in media containing 2.0 μM CHIR using various phenotypic assays of CM function. To assess sarcomere alignment, CHIR and CTR hiPSC-CMs on 7:1 aspect ratio micropatterns (Ribeiro et al., 2015) were cultured and immunostained with TnT and sarcomeric actinin antibodies.

[4] = system: hiPSC-CMs; assay: Real-time PCR / immunostaining of cardiac gene expression in hiPSC-CMs; settings: CHIR treatment, qPCR
Procedure: For quantitative analysis of gene expression, RNA was extracted with a lysis buffer (Qiagen) from hiPSC-CMs and stored at −80° C. Total RNA from each sample was purified from cell lysate using a RNA purification kit (Qiagen). cDNA was made using iScript cDNA synthesis kit (BioRad). Quantitative PCR was performed using a 96-well thermocycler system (Biorad) with SYBR Green substrate (Affymetrix) for 40 cycles. All primers sequences were obtained from the PrimerBank (Massachusetts General Hospital/Harvard Medical School) online database. […] Day 12 hiPSC-CMs were cultured in CHIR continuously for 2 months with serial passaging followed by CHIR withdrawal for an additional month.

[5] = system: hiPSC-CMs; assay: Single cell RNA sequencing of day 12 hiPSC-CMs
Procedure: For the single cell gene expression replated hiPSC-CMs were treated at day 12 with DMSO, CHIR99021 or C59 for 24 hours. At day 13 cells were digested with TrypLE Select Enzyme for about 5 minutes and dissociated with gentle pipetting. […] Single cell analysis was performed with the Loupe Cell Browser software. To investigate the global transcriptional changes of hiPSC-CMs in response to gain and loss of Wnt signaling, single cell RNA sequencing was performed in day 12 hiPSC-CMs treated for 24 hours with either DMSO (CTR), CHIR or C59.

[6] = system: AKT1/2/3 and other kinases; assay: Phospho-kinase array and western blot in CHIR-treated hiPSC-CMs
Procedure: Kinase phosphorylation levels were screened with a Proteome Profiler Human Phospho-Kinase Array Kit (R&D Systems) containing 43 human kinases and total amounts of 2 proteins. Validation was performed with regular western blotting. Total protein expression was measured with a gel imager (Biorad) and processed with pixel intensity software (Biorad).

[7] = system: TCF/LEF; assay: TOPFlash TCF/LEF luciferase reporter in hiPSCs; settings: treatment alone, 2 hours
Procedure: and day 30 hiPSC-CMs were replated in 96-well plates and cultured for 2-3 days before transfection with Lipofectamine (Invitrogen) and TOPFlash (TCF/LEF) luciferase Wnt signaling reporter plasmid (M50, Addgene) at 100 ng/well. After 48 hours, media was changed, and cells were subjected to different treatments for 2 hours before lysis and luciferase (Promega) luminescence was measured with a standard luminescence plate reader. […] It was studied whether S1P/LPA treatment of undifferentiated hiPS cells, either alone or in combination with CHIR, could increase the level of nuclear β-catenin. […] To examine whether the increase in nuclear β-catenin level results in an activation of Wnt signaling at the transcriptional level, hiPSCs were transfected with the previously described TOPFlash luciferase reporter plasmid^23 ([…] et al. 2003). This system provides a proportionate visualization of Wnt transcriptional activity using bioluminescence. Subsequently, the cells were treated with dimethyl sulfoxide (DMSO), CHIR, S1P/LPA, or a combination of S1P/LPA and CHIR. […] When S1P/LPA was combined with CHIR, the TCF/LEF-luciferase activity was further increased to more than 60-fold compared with DMSO control (FIG. 16C).

[8] = system: hiPSCs; assay: hiPSC morphology, cell number and marker expression; settings: 48-hour treatment of hiPSCs, immunostaining and qPCR
Text: The changes in gene expression was validated after treatment with bioactive lipids or CHIR from the microarray studies with immunostaining and quantitative PCR analysis (FIG. 17D-E).

[9] = system: hiPSC-CMs; assay: Motion-derived contractility of day 30 hiPSC-CMs; settings: day 30 hiPSC-CMs vs control
Text: These studies illustrate an additional role for S1P/LPA to regulate cell cycle activity in well-differentiated hiPSC-CMs and synergize with β-catenin signaling to increase hiPSC-CM proliferation.

[10] = system: TCF/LEF; assay: TOPFlash TCF/LEF luciferase reporter in day 30 hiPSC-CMs; settings: day 30 cardiomyocytes, 2-hour treatment
Procedure: […] and day 30 hiPSC-CMs were replated in 96-well plates and cultured for 2-3 days before transfection with Lipofectamine (Invitrogen) and TOPFlash (TCF/LEF) luciferase Wnt signaling reporter plasmid (M50, Addgene) at 100 ng/well. After 48 hours, media was changed, and cells were subjected to different treatments for 2 hours before lysis and luciferase (Promega) luminescence was measured with a standard luminescence plate reader. To determine the mechanism through which S1P/LPA regulate cell cycle activity in hiPSC-CMs, it was evaluated whether S1P and LPA treatment can directly stimulate Wnt/β-catenin signaling in day 30 cardiomyocytes using the TOPFlash (TCF/LEF-luciferase) reporter.

## Cc1c[nH]c(-c2cnc(NCCNc3ccc(C#N)cn3)nc2-c2ccc(Cl)cc2Cl)n1 [CHIR99021]
[1]; 2.0 μM CHIR from day 12, serial passaging
  increase in the total cell number: greater than 100 fold
[1]; 2.0 μM CHIR from day 12, serial passaging, TnT+ cells vs DMSO
  increase in CM number: greater than 100 fold
[1]; 2.0 μM CHIR, Caspase 3 staining
  cell death: without notable cell death
[1]; 2.0 μM CHIR, DMSO cells cease to proliferate after first passage
  number of passages possible: up to 5 times
[1]; CHIR treatment with serial passaging
  hiPSC-CMs generated from 2 million day 12 hiPSC-CMs: 300-900 million
[1]; CHIR-treated early passage hiPSC-CMs
  time to confluence after passaging: 5 to 7 days
[1]; expansion of beating hiPSC-CMs
  TnT purity during expansion: > 95%
[1]; flow cytometry, vs DMSO which decreased
  CM purity with each passage (TnT+): maintain, if not slightly enrich
[2]
  TCF/LEF activity (TOPFlash): dramatic increase in TCF/LEF activity
[3]; 3 passages in 2.0 μM CHIR vs age-matched CTR
  sarcomere alignment and organization: markedly reduced alignment and organization of sarcomeres
[3]; CHIR-treated vs CTR cells
  contractile force generation: decreased force generation
[4]
  Wnt signaling target gene expression (Axin2, LEF, CCND2): induction of Wnt signaling target gene expression
  markers of hiPSC-CM maturation (MYL2, MYH7, MYOM1): down-regulated
[5]; 24 hours CHIR
  cardiac progenitor markers Isl1 and MESP1/2 expression: did not result in increased expression
[5]; 24 hours, CHIR vs CTR or C59
  Wnt signaling target genes and cardiogenic transcription factors expression: highly upregulated
  mature cardiac genes expression: dramatically downregulated
[6]; CHIR
  phosphorylation of HSP27 and p70S6K: increased phosphorylation
  phosphorylation of growth suppressor P27: subtle increase
[6]; screen of 43 kinases, CHIR
  AKT1/2/3 phosphorylation at T308: significant upregulation
[6]; western blot, CHIR vs DMSO
  active form of AKT (pAKT T308): rapidly increased
[7]
  TCF/LEF-luciferase activity, increase vs DMSO control: ~40 fold
[8]
  Brachyury T (Bry T) expression: increase both VIM and Brachyury T (Bry T) expression
  VIM expression: increase both VIM and Brachyury T (Bry T) expression
[9]
  beating frequency or contractile force generation: no significant difference
[10]
  TCF/LEF-luciferase activity (TOPFlash): activated
